O=C(/C=C/c1cn(-c2ccccc2)nc1-c1ccc(Cl)cc1)c1nc2ccccc2[nH]1
solubility (mole fraction)
Conditions	in acetonitrile	in ethanol	in ethyl acetate	in methanol	in n-butanol	in n-pentanol	in n-propanol
298.15 K	0.000116	0.000102	0.000257	4.06e-05	0.00015	0.000253	8.35e-05
303.15 K	0.000135	0.000113	0.00029	5.1e-05	0.000175	0.000275	0.000103
308.15 K	0.000153	0.00012	0.000328	6.74e-05	0.000201	0.000304	0.000121
313.15 K	0.000171	0.000132	0.000385	7.9e-05	0.000216	0.000354	0.000132
318.15 K	0.000182	0.000148	0.000432	9.36e-05	0.00024	0.000387	0.00015
323.15 K	0.000193	0.000155	0.000482	0.000105	0.000258	0.000423	0.000158
328.15 K	0.000211	0.000172	0.000526	0.000117	0.000295	0.000442	0.000167

O=C(/C=C/c1cn(-c2ccccc2)nc1-c1ccccc1Cl)c1nc2ccccc2[nH]1
solubility (mole fraction)
Conditions	in acetonitrile	in ethanol	in ethyl acetate	in methanol	in n-butanol	in n-pentanol	in n-propanol
298.15 K	1.78e-05	0.000105	0.00077	9.04e-05	0.000294	0.000354	0.000157
303.15 K	6e-05	0.000125	0.00095	0.000116	0.00033	0.0004	0.000167
308.15 K	0.000101	0.000145	0.00107	0.000133	0.000354	0.000448	0.000177
313.15 K	0.00014	0.000157	0.0012	0.000149	0.0004	0.00051	0.000189
318.15 K	0.000187	0.000179	0.00135	0.000168	0.000445	0.0006	0.000205
323.15 K	0.00021	0.000195	0.00145	0.000187	0.0005	0.00069	0.00022
328.15 K	0.000241	0.000217	0.00157	0.000209	0.000533	0.00074	0.000244

O=C(/C=C/c1cn(-c2ccccc2)nc1-c1cccc([N+](=O)[O-])c1)c1nc2ccccc2[nH]1
solubility (mole fraction)
Conditions	in acetonitrile	in ethanol	in ethyl acetate	in methanol	in n-butanol	in n-pentanol	in n-propanol
298.15 K	0.000103	5.53e-05	0.0013	4.04e-05	0.000202	0.000281	0.000115
303.15 K	0.000123	6.2e-05	0.00149	4.85e-05	0.000236	0.000326	0.000135
308.15 K	0.000148	7.01e-05	0.0017	5.5e-05	0.000279	0.000368	0.000164
313.15 K	0.000163	8.42e-05	0.00194	5.9e-05	0.000324	0.000424	0.000175
318.15 K	0.00019	9.46e-05	0.00217	6.59e-05	0.000359	0.000455	0.000206
323.15 K	0.000216	0.000103	0.00244	7.4e-05	0.000402	0.000513	0.000226
328.15 K	0.000232	0.000119	0.00277	8.21e-05	0.000445	0.000557	0.000251

COc1ccc(-c2nn(-c3ccccc3)cc2/C=C/C(=O)c2nc3ccccc3[nH]2)cc1OC
solubility (mole fraction)
Conditions	in acetonitrile	in ethanol	in ethyl acetate	in methanol	in n-butanol	in n-pentanol	in n-propanol
298.15 K	0.000113	3.91e-05	0.000355	3.04e-05	0.00016	0.00031	0.000125
303.15 K	0.000135	5e-05	0.000425	3.6e-05	0.000209	0.00033	0.00014
308.15 K	0.000152	5.88e-05	0.000471	4.06e-05	0.000244	0.000354	0.00015
313.15 K	0.00017	7.16e-05	0.00052	4.47e-05	0.00028	0.000375	0.000167
318.15 K	0.000189	8.46e-05	0.000554	5.02e-05	0.000321	0.000395	0.000185
323.15 K	0.00021	0.0001	0.00059	5.5e-05	0.00035	0.000412	0.0002
328.15 K	0.00023	0.000111	0.000629	6.53e-05	0.00039	0.00043	0.00022

COc1cccc(-c2nn(-c3ccccc3)cc2/C=C/C(=O)c2nc3ccccc3[nH]2)c1
solubility (mole fraction)
Conditions	in acetonitrile	in ethanol	in ethyl acetate	in methanol	in n-butanol	in n-pentanol	in n-propanol
298.15 K	2.91e-05	7.24e-05	0.000241	2.71e-05	0.00017	0.000227	0.000126
303.15 K	4.16e-05	8.5e-05	0.000256	3.15e-05	0.000185	0.000274	0.000145
308.15 K	5.87e-05	0.000106	0.000274	3.63e-05	0.000211	0.000312	0.000166
313.15 K	7.62e-05	0.000121	0.000292	4.12e-05	0.00023	0.000381	0.000187
318.15 K	9.21e-05	0.000136	0.000317	4.62e-05	0.000258	0.000427	0.000206
323.15 K	0.000111	0.000148	0.000336	5.15e-05	0.000285	0.000457	0.000231
328.15 K	0.000122	0.000165	0.000365	5.81e-05	0.000311	0.000499	0.000245

COc1ccc(-c2nn(-c3ccccc3)cc2/C=C/C(=O)c2nc3ccccc3[nH]2)cc1
solubility (mole fraction)
Conditions	in acetonitrile	in ethanol	in ethyl acetate	in methanol	in n-butanol	in n-pentanol	in n-propanol
298.15 K	0.000165	0.000352	0.000809	0.000145	0.00133	0.00156	0.00049
303.15 K	0.0002	0.000372	0.000826	0.000149	0.00136	0.00162	0.00052
308.15 K	0.000227	0.000385	0.000846	0.000155	0.00138	0.00168	0.000541
313.15 K	0.00025	0.000399	0.000868	0.00016	0.00142	0.00174	0.000565
318.15 K	0.000282	0.00042	0.000886	0.000167	0.00145	0.00179	0.000586
323.15 K	0.000301	0.00043	0.00091	0.00017	0.00149	0.00185	0.000615
328.15 K	0.000329	0.000452	0.000935	0.000177	0.00151	0.00191	0.000628

O=C(/C=C/c1cn(-c2ccccc2)nc1-c1ccccc1)c1nc2ccccc2[nH]1
solubility (mole fraction)
Conditions	in acetonitrile	in ethanol	in ethyl acetate	in methanol	in n-butanol	in n-pentanol	in n-propanol
298.15 K	5.71e-05	8.48e-05	0.000159	5.54e-05	0.000248	0.000257	0.000135
303.15 K	6.5e-05	9.4e-05	0.000195	6.53e-05	0.000275	0.000332	0.000152
308.15 K	7.61e-05	0.000106	0.000243	8.08e-05	0.000299	0.000406	0.000179
313.15 K	9.3e-05	0.000123	0.000312	8.83e-05	0.000335	0.000475	0.000189
318.15 K	0.000102	0.000135	0.000362	9.87e-05	0.000374	0.000535	0.000215
323.15 K	0.00012	0.000146	0.000403	0.000115	0.000425	0.000592	0.000226
328.15 K	0.000132	0.00016	0.000463	0.000123	0.000465	0.000639	0.000255
